# Tests used:
# AKT信号磷酸化 = assay: In vitro activity of Glu-insulin: AKT phosphorylation in HepG2 cells (western blot); type: cell-based; settings: 10 min, 0-100nM
# 1型糖尿病小鼠 = assay: Blood glucose lowering by Glu-insulin in STZ-induced type 1 diabetic mice; type: in vivo, C57BL/6小鼠; settings: s.c., insulin-equivalent dose 1.5mg/kg
substance,measurement,setting,value
Glu-insulin: Recombinant human insulin modified with gluconic acid at A1 (N-terminus of the α chain) [葡萄糖酸基胰岛素],Activity on AKT phosphorylation compared with recombinant human insulin,AKT信号磷酸化,显示出与未修饰的重组人胰岛素相似的活性
same,Blood glucose lowering effect compared with recombinant human insulin,1型糖尿病小鼠,仍有与重组人胰岛素类似的降糖效果

# Reference: patent CN117771387A, “糖响应性复合物及其制备方法和应用” (priority 2022, dated 2024)
